Measurements: publication PMC7154053, “Chemical, Metabolic, and Cellular Characterization of a FtsZ Inhibitor Effective Against Burkholderia cenocepacia” (Frontiers in Microbiology, 2020)

System: B. cenocepacia J2315
Assay: Time-lapse microscopy, single-cell analysis in microfluidic device
Assay type: cell-based, Burkholderia cenocepacia
Description: B. cenocepacia J2315 was cultured over-night in Middlebrook 7H9 broth, supplemented with 10% (v/v) DS enrichment (20 g dextrose, 8.5 g sodium chloride in 1 L water) and 5% (v/v) of a casamino acids solution (10 g casamino acids in 100 ml water). Cells were diluted 10-fold in the same fresh 7H9 medium, and 5 μl of the diluted cell suspension were inoculated into a custom-made microfluidic hexa-device, as previously described (Manina et al., [2019]). Silicone tubing (0.76 mm ID) was connected to each inlet and outlet ports of the hexa-device to enable medium circulation. Two 50 ml syringes were connected to the inlet tubing, and prewarmed 7H9 medium was pumped through the microfluidic device at 15 μl/min. The outlet tubing were inserted into a waste receptacle containing bleach. […] Bacteria were imaged in phase contrast, using a UPLFLN100XO2/PH3/1.30 objective (Olympus) and a high-speed sCMOS camera, with the help of an automated epifluorescence inverted microscope (DeltaVision Elite, GE Healthcare). The microscope was equipped with an environmental chamber maintained at 37°C. Images were recorded at 20-min intervals and up to 46 h. Exposure conditions were as follows: phase 50% T, 150 ms. In each experiment, 190 XY fields were imaged. The same experimental set-up was carried out twice.
Manual segmentation of individual cells and analysis of image stacks were performed using the ImageJ 1.52a software. The Selection Brush Tools was used to draw polygons corresponding to the shape of individual cells and to extract the cell planar area (μm^2). Measurements of the cell area were repeated throughout the generation time of individual cells, to calculate the growth rate by fitting an exponential curve.
Biphasic killing represents the typical pattern of drug persistence, whereby the initial linear mortality of the population is followed by a second phase where a subpopulation of cells is able to endure inhibitory drug concentrations in the absence of genetic mutations (Van den Bergh et al., [2017]). In contrast to drug-resistant cells, which continue to replicate in the presence of the drug, drug-persistent cells either derive from pre-existing non-growing cells or slow down their growth during drug exposure, and their progeny is killed with kinetics similar to that of the initial population (Van den Bergh et al., [2017]; Balaban et al., [2019]). […] To examine the C109 killing dynamics of B. cenocepacia at the single-cell level, we carried out a time-lapse microscopy experiment, divided into several steps. Wild type B. cenocepacia J2315 cells were first seeded into a microfluidic device (Manina et al., [2019]), and perfused with prewarmed 7H9 medium for 3 h, to allow the cells to adapt to the microfluidic environment. […] Cells were then perfused with C109-free 7H9 medium for 12 h, enabling the recovery and expansion of surviving cells. […] During the time-lapse imaging, cells were monitored every 20 min for a total of 46 h. The total number of cells, the single-cell area, and the number of division and lysis events were measured during each step of the experiment.

SMILES: COC(=O)CSc1ccc2nsnc2c1[N+](=O)[O-] [C109, methyl [(4-nitro-2,1,3-benzothiadiazol-5-yl)thio]acetate]
- elongated cells that resumed normal growth during washout (possible persistent cells) (8 of 3,000 elongated cells formed during first exposure): 0.27%
- cells died from lysis, first treatment (C109 100 μg/ml (12.5X-MIC), 4 h): 70%
- cells still able to grow with considerable filamentation, first treatment (C109 12.5X-MIC, 4 h): 3.5%
- cells that stopped to divide (sensitive), second treatment (C109 12.5X-MIC, 24 h): 94%
- decline in cell population, second treatment (C109 12.5X-MIC, 24 h): 92%
- cells with elongated phenotype, second treatment (C109 12.5X-MIC, 24 h, of the total cell number): ~6%
- filamentous cells that started again to divide during washout (C109 washout with fresh medium): 30%
- increase of cell area, cells dying by lysis (first treatment): 2 fold
- increase of cell area, filamentous cells (first treatment): up to 5 fold
- increase of cell area, elongated cells (second treatment, 8–10 μm^2): up to 10 fold
